# Results from patent publication US4032659A (priority 1975, dated 1977).
# Like-named read-outs stand apart in the source and are kept apart here.
# Columns and labels:
# Herpes virus [1] = type: in vivo, mouse
# Herpes virus [2] = test: Herpes virus in eggs (chick embryo survival); type: in vivo, chicken eggs; details: for Deaths on day 1 / Deaths on day 2 / Deaths on day 3 / Total Deaths 4th Day / Deaths on day 4: 12 eggs
# Influenza PR 8 virus = test: Chemoprophylaxis of Influenza PR 8 virus infection in mice; type: in vivo, mouse
# [3] = test system: Influenza B Massachusetts virus; test: Chemoprophylaxis of Influenza B Massachusetts virus infection in mice; type: in vivo, mouse; details: oral
# Description: The activity of four compounds on Influenza B Mass. was tested in mice.
# A portion of a commercially available sample of amantadine was recrystallized from isopropanol. The activity of the material against Influenza B Mass. was tested for the sample as obtained, the recrystallized portion, and the mother liquor obtained from recrystallizing the portion.
# Vaccinia virus = type: in vivo; details: scarified rabbit skin
# virus infections = test: Antiviral screening program, several viruses; details: mouse, in vivo
# [4] = test system: Influenza Ann Arbor virus; test: Chemoprophylaxis of Influenza Ann Arbor (A1) virus infection in mice; type: in vivo, mouse; details: oral
# [5] = test system: Influenza B Maryland virus; test: Chemoprophylaxis of Influenza B Maryland virus infection in mice; type: in vivo, mouse; details: for No. animals surviving when 18/20 of controls are dead / Survivors: oral
# pox virus = test: Pox virus infections of mice; details: mouse, in vivo
# Influenza A PR8 virus = test system: Influenza A PR8 virus; set-up: dose or concentration left out as unconfirmed; details: cited from earlier work
# [6] = subcutaneous, total dose .0005 μg
compound,measurement,setting,value
"CCC(C)=NNC(N)=S [2-Butanone, thiosemicarbazone, 2-butanone, thiosemicarbazone]",No. animals surviving when 17/20 controls are dead,"Herpes virus [1]; oral, total dose .000005 μg",0
same,Survivors,"Herpes virus [1]; oral, total dose .000005 μg",0
same,No. animals surviving when 17/20 controls are dead,"Herpes virus [1]; oral, total dose .00005 μg",4
same,No. animals surviving when 17/20 controls are dead,"Herpes virus [1]; oral, total dose .0005 μg",5
same,Survivors,"Herpes virus [1]; oral, total dose .0005 μg",4
same,No. animals surviving when 17/20 controls are dead,"Herpes virus [1]; oral, total dose .05 μg",0
same,Survivors,"Herpes virus [1]; oral, total dose .05 μg",0
same,"No. Hatched, total",Herpes virus [2]; all doses,5
same,"No. Living Longer Than Controls, total",Herpes virus [2]; all doses,12
same,Deaths on day 1,Herpes virus [2]; dose 2 μg,1
same,Deaths on day 2,Herpes virus [2]; dose 2 μg,5
same,Deaths on day 3,Herpes virus [2]; dose 2 μg,3
same,Total Deaths 4th Day,Herpes virus [2]; dose 2 μg,9
same,Deaths on day 2,Herpes virus [2]; dose 20 μg,5
same,Deaths on day 3,Herpes virus [2]; dose 20 μg,1
same,Deaths on day 4,Herpes virus [2]; dose 20 μg,2
same,Total Deaths 4th Day,Herpes virus [2]; dose 20 μg,8
same,Deaths on day 1,Herpes virus [2]; dose .00005 μg,2
same,Deaths on day 2,Herpes virus [2]; dose .00005 μg,4
same,Deaths on day 3,Herpes virus [2]; dose .00005 μg,5
same,Total Deaths 4th Day,Herpes virus [2]; dose .00005 μg,11
same,Deaths on day 1,Herpes virus [2]; dose .0005 μg,1
same,Deaths on day 2,Herpes virus [2]; dose .0005 μg,5
same,Deaths on day 3,Herpes virus [2]; dose .0005 μg,3
same,Deaths on day 4,Herpes virus [2]; dose .0005 μg,1
same,Total Deaths 4th Day,Herpes virus [2]; dose .0005 μg,10
same,Deaths on day 1,Herpes virus [2]; dose .005 μg,2
same,Deaths on day 2,Herpes virus [2]; dose .005 μg,4
same,Deaths on day 3,Herpes virus [2]; dose .005 μg,2
same,Deaths on day 4,Herpes virus [2]; dose .005 μg,3
same,Total Deaths 4th Day,Herpes virus [2]; dose .005 μg,11
same,Deaths on day 1,Herpes virus [2]; dose .05 μg,2
same,Deaths on day 2,Herpes virus [2]; dose .05 μg,6
same,Deaths on day 3,Herpes virus [2]; dose .05 μg,3
same,Total Deaths 4th Day,Herpes virus [2]; dose .05 μg,11
same,Deaths on day 1,Herpes virus [2]; dose .5 μg,1
same,Deaths on day 2,Herpes virus [2]; dose .5 μg,3
same,Deaths on day 3,Herpes virus [2]; dose .5 μg,6
same,Deaths on day 4,Herpes virus [2]; dose .5 μg,2
same,Total Deaths 4th Day,Herpes virus [2]; dose .5 μg,12
same,Survivors,"Influenza PR 8 virus; drinking water 24 h post-infection only, first printed value (concentration column unclear)",0
same,Survivors,"Influenza PR 8 virus; drinking water 24 h pre- and 24 h post-infection, 0.5 mg/ml",1
same,No. animals surviving after 6 days,"Influenza PR 8 virus; oral, total dose .000005 μg",6
same,No. animals surviving after 7 days,"Influenza PR 8 virus; oral, total dose .000005 μg",4
same,No. animals surviving after 6 days,"Influenza PR 8 virus; oral, total dose .00005 μg",5
same,No. animals surviving after 7 days,"Influenza PR 8 virus; oral, total dose .00005 μg",8
same,No. animals surviving when 19/20 of controls are dead,"Influenza PR 8 virus; oral, total dose .00005 μg",4
same,Survivors,"Influenza PR 8 virus; oral, total dose .00005 μg",4
same,No. animals surviving when 19/20 of controls are dead,"Influenza PR 8 virus; oral, total dose .0005 μg",1
same,Survivors,"Influenza PR 8 virus; oral, total dose .0005 μg",1
same,No. animals surviving when 19/20 of controls are dead,"Influenza PR 8 virus; oral, total dose .005 μg",0
same,Survivors,"Influenza PR 8 virus; subcutaneous, total dose .000005 μg",0
same,Survivors,"Influenza PR 8 virus; subcutaneous, total dose .00005 μg",0
same,No. animals surviving after 6 days,Influenza PR 8 virus; [6],1
same,Survivors,Influenza PR 8 virus; [6],1
same,Survivors,"Influenza PR 8 virus; subcutaneous, total dose .005 μg",0
same,No. animals surviving after 5 days,[3]; total dose .000005 μg,6
same,No. animals surviving when 100% controls are dead,[3]; total dose .000005 μg,3
same,Survivors,[3]; total dose .000005 μg,2
same,No. animals surviving after 5 days,[3]; total dose .00005 μg,8
same,No. animals surviving when 100% controls are dead,[3]; total dose .00005 μg,3
same,Survivors,[3]; total dose .00005 μg,2
same,No. animals surviving after 5 days,[3]; total dose .0005 μg,7
same,No. animals surviving when 100% controls are dead,[3]; total dose .0005 μg,1
same,Survivors,[3]; total dose .0005 μg,0
same,No. animals surviving after 5 days,[3]; total dose .005 μg,4
same,No. animals surviving when 100% controls are dead,[3]; total dose .005 μg,0
same,Survivors,[3]; total dose .005 μg,0
same,No. animals surviving after 5 days,[3]; total dose .05 μg,4
same,No. animals surviving when 100% controls are dead,[3]; total dose .05 μg,2
same,Survivors,[3]; total dose .05 μg,0
same,No. animals surviving after 5 days,[3]; total dose .5 μg,5
same,No. animals surviving when 100% controls are dead,[3]; total dose .5 μg,4
same,Survivors,[3]; total dose .5 μg,1
same,effect on pox formation,Vaccinia virus,variable
same,activity (in words),virus infections,one of the most active compounds that has been studied to date
"CN1C(=O)/C(=N\NC(N)=S)c2ccccc21 [Methisazone, 1-methylindole-2,3-dione,3-thiosemicarbazone, reference compound]",No. animals surviving after 6 days,"Herpes virus [1]; mouse, in vivo, po",1
same,No. animals surviving after 6 days,"Herpes virus [1]; oral, total dose .00005 μg",0
same,No. animals surviving after 6 days,"Herpes virus [1]; oral, total dose .0005 μg",0
same,No. animals surviving after 6 days,"Herpes virus [1]; oral, total dose .005 μg",0
same,Survivors,"Herpes virus [1]; oral, total dose .05 μg",0
same,No. animals surviving after 5 days,[4]; total dose 5 μg,4
same,Survivors,[4]; total dose 5 μg,0
same,No. animals surviving after 5 days,[4]; total dose 50 μg,3
same,Survivors,[4]; total dose 50 μg,0
same,No. animals surviving after 5 days,[4]; total dose .00005 μg,6
same,Survivors,[4]; total dose .00005 μg,0
same,No. animals surviving after 5 days,[4]; total dose .0005 μg,5
same,Survivors,[4]; total dose .0005 μg,0
same,No. animals surviving after 5 days,[4]; total dose .005 μg,5
same,Survivors,[4]; total dose .005 μg,0
same,No. animals surviving after 5 days,[4]; total dose .05 μg,4
same,Survivors,[4]; total dose .05 μg,0
same,No. animals surviving after 5 days,[4]; total dose .5 μg,6
same,Survivors,[4]; total dose .5 μg,0
same,activity,"[5]; mouse, in vivo",active against Influenza B Maryland virus
same,No. animals surviving when 18/20 of controls are dead,[5]; total dose 6 ng,4
same,Survivors,[5]; total dose 6 ng,2
same,No. animals surviving when 18/20 of controls are dead,[5]; total dose 60 ng,4
same,Survivors,[5]; total dose 60 ng,2
same,No. animals surviving when 18/20 of controls are dead,[5]; total dose 600 ng,2
same,Survivors,[5]; total dose 600 ng,2
same,No. animals surviving when 18/20 of controls are dead,[5]; total dose 6 μg,4
same,Survivors,[5]; total dose 6 μg,1
same,activity,pox virus,active against pox virus infections of mice
same,activity (in words),virus infections,found to have activity
"CC(C=NNC(=N)N)=NNC(=N)N [methyl-GAG, Methylgloxal-bis-guanylhydrazone]",inhibition,Influenza A PR8 virus; lower limit,Ninety
same,Toxicity,Influenza A PR8 virus; upper limit,toxic
